Reference: US11752084B2, “Methods for fat reduction or elimination of lipid droplets” (Alastin Skincare, Inc., priority 2017, dated 2023)

What was measured:
hyaluronic acid = settings: ex vivo human skin model; cited from earlier work
Dermal Fibroblasts = experiment: Gene expression in fibroblasts by quantitative-PCR; type: cell-based; settings: 72 hours exposure, vs untreated control
Protocol: Gene expression in fibroblasts were measured following 72 hours of exposure to hexapeptide-11.
Dermal Fibroblasts were plated in cell culture media and allowed to grow to approximately 85-90% confluency following manufacturer's guidelines. Cells were harvested and plated at 10,000 cells per cm^2 in 6-well dishes cultured for 3 days. On the third day, confluency was estimated by microscopy and the cell culture media was replaced. The cells were treated with hexpapeptide-11 at a 100× concentration or control buffer without peptide. The time at initial exposure to the peptide is considered time, t=0. Treated and untreated control cells were harvested, counted and extracted for RNA at 24 hours, 48 hours, and 72 hours following t=0. Cell pellets and isolated RNA were stored at −80° C. until analysis by quantitative-PCR.
The 72-hour time point RNA samples (treated and untreated) were used for gene expression analysis. RNA was converted to first strand cDNA and analyzed by quantitative-PCR.

[1] = system: 3T3-L1 adipocytes and J774 macrophages; experiment: Macrophage clustering on adipocytes; type: cell-based; settings: for number of macrophages associated with adipocytes: FIG. 5A, ~100 adipocytes/condition
Protocol: 3T3-L1 adipocytes were untreated or treated with TNF-alpha (˜25 nM) for 24 hours. One set of TNF-alpha treated adipocytes was also treated with hexapeptide-11 (0.1 mg/mL). One set of J774 macrophages was treated with hexapeptide-11 (0.1 mg/mL) for 24 hours. The macrophages were added to the adipocytes. After an 1 hour incubation, the cells were placed on ice and incubated with a fluorescently labeled Cholera toxin B subunit to label the cell surface of macrophages a fluorescent green. The cells were then fixed with 4% formaldehyde for 15 minutes and then incubated with LipidTox to label the lipid droplets within the adipocytes a fluorescent red color. Four conditions were performed: (1) J774 macrophages with untreated adipocytes; (2) J774 macrophages with TNF-alpha treated adipocytes; (3) J774 macrophages with TNF alpha treated adipocytes plus hexapeptide-11 in the 1 hour incubation of both cell types; and (4) peptide pretreated J774 macrophages with hexapeptide-11 pretreated TNF-alpha treated adipocytes incubated together in the presence of hexapeptide-11. Images taken with a 60× objective were analyzed by counting the number of macrophages associated with ˜100 adipocytes for each condition.

Compound	stimulation of dermal hyaluronic acid level versus placebo (hyaluronic acid) [%]	stimulation of epidermal hyaluronic acid level versus placebo (hyaluronic acid) [%]	Fold Change AMBRA1 (Dermal Fibroblasts) [fold]	Fold Change ATG4A (Dermal Fibroblasts) [fold]	Fold Change ATG5 (Dermal Fibroblasts) [fold]	Fold Change CASP3 (Dermal Fibroblasts) [fold]	Fold Change COL5A2 (Dermal Fibroblasts) [fold]	Fold Change IGF1 (Dermal Fibroblasts) [fold]	Fold Change MAPK14 (Dermal Fibroblasts) [fold]	Fold Change PDGFRA (Dermal Fibroblasts) [fold]	Fold Change PSMB5 (Dermal Fibroblasts) [fold]	Fold Change SOD3 (Dermal Fibroblasts) [fold]	Fold Change TNF (Dermal Fibroblasts) [fold]	macrophage clustering ([1]; 0.1 mg/mL, TNF-alpha treated adipocytes)	number of macrophages associated with adipocytes [1]	adipocyte droplet breakdown ([1]; TNF-alpha and peptide treatments, FIG. 4 right panel)
CCCCCCCC(=O)CCc1ccc(O)c(OC)c1 [hydroxymethoxyphenyl decanone]	259	198														
Phe-Val-Ala-Pro-Phe-Pro (FVAPFP) [hexapeptide-11]			3.59	3.29	2.00	2.24	−65.65	−901.80	−83.67	−369.65	2.56	−101.59	−92.41	increase macrophage clustering	increased	further adipocyte droplet breakdown
TNF-alpha [reference compound]															greatly increased	
